Results on one molecule are retold here after publication PMC11584650, “An inhibitory segment within G-patch activators tunes Prp43-ATPase activity during ribosome assembly” (Nature Communications, 2024).

Assay [1] addresses T1, Prp43:Tma23^M (Saccharomyces cerevisiae, UniProt P53131).
T1 construct: 1:1 complex of Prp43 with the middle (I-patch containing) domain of Tma23, co-expressed in E. coli; with Protein TMA23
Description: pyruvate kinase/lactate dehydrogenase coupled NADH assay, Michaelis-Menten fit. The class given is biochemical. Conditions: no RNA; 20 mM MgCl2, 50 mM Hepes pH 7.5, 200 mM KCl, room temperature, ATP up to 2.5 mM. The source says: pyruvate kinase/lactate dehydrogenase coupled NADH assay, Michaelis-Menten fit on Prp43:Tma23^M | We obtained kinetic parameters for the ATPase activities of Prp43, Prp43:Tma23^M and Ppr43:Pxr1^M complexes

Assay [2] concerns the target T2, Prp43:Pxr1^GM (Saccharomyces cerevisiae, UniProt P53131).
T2 construct: full-length Prp43 with G-patch plus middle domain of Pxr1 (137 residues), co-expressed in E. coli; resolved Prp43 52-718 and Pxr1 122-136; with Protein PXR1
Description: pyruvate kinase/lactate dehydrogenase coupled NADH assay, initial rate. The class given is biochemical. As to conditions: 2.5 mM ATP, no RNA; 20 mM MgCl2, 50 mM Hepes pH 7.5, 200 mM KCl, room temperature.

T2 sequence (P53131 whole entry, the tested form may be a part): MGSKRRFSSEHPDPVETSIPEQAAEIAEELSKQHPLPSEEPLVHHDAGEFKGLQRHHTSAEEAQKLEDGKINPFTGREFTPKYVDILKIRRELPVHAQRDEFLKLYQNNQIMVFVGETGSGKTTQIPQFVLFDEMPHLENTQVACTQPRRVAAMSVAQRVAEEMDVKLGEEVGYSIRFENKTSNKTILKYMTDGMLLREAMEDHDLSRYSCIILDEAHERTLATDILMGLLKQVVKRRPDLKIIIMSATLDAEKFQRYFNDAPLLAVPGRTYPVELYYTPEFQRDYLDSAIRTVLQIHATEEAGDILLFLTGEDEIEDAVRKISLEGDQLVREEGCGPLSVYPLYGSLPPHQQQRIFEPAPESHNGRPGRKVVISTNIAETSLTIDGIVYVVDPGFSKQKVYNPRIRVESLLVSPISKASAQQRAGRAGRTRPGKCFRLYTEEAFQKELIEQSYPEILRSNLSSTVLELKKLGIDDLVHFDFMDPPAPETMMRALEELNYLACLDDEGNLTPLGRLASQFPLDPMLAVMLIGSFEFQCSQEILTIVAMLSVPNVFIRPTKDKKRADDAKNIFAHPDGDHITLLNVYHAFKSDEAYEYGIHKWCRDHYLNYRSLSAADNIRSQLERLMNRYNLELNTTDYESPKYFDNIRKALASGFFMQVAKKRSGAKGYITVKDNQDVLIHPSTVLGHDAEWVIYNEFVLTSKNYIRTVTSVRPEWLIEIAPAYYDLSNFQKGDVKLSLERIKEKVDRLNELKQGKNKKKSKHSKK
T2 sequence (P53335 1-137 partner): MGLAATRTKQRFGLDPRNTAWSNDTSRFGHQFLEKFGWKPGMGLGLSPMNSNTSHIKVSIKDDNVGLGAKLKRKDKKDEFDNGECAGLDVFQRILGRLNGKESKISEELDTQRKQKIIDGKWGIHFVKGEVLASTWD
T1 sequence (P53131 whole entry): as the sequence (P53131 whole entry, the tested form may be a part) above
T1 sequence (Q03525 whole entry partner): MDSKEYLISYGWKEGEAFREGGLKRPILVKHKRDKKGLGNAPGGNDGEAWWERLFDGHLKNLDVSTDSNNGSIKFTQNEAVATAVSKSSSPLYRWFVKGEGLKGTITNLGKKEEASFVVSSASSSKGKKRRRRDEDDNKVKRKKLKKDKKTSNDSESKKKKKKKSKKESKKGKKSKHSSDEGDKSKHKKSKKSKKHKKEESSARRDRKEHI

For `Nc1ncnc2c1ncn2[C@@H]1O[C@H](COP(=O)(O)OP(=O)(O)OP(=O)(O)O)[C@@H](O)[C@H]1O` [ATP], the Km in assay [1] worked out at 34 ± 4.56 µM. Further, in assay [2], the “pyruvate kinase/lactate dehydrogenase coupled NADH assay, initial rate” value is “Pxr1^GM, Pxr1^GM-L33E, and Pxr1^M were co-expressed with Prp43”.

What is called Km is the substrate concentration at which the rate is half of its maximum.
